Columns and labels:
E. faecalis B3/101 = assay: Checkerboard synergy with VAN; type: cell-based, Enterococcus faecalis
Protocol: (§1) The combined effect of compound 1 and CTX for E. coli SA/2, VAN for E. faecalis B3/101, COL for E. coli 2252, erythromycin for E. coli ATCC 25922, and OXA for S. aureus 66/1 was evaluated by the checkerboard method. […] The interaction between compound 1 and erythromycin was assessed for E. coli ATCC 25922. Gram-negative bacteria are intrinsically resistant to erythromycin, a macrolide that inhibits protein synthesis, and cannot penetrate the outer membrane of Gram-negative bacteria, which is impermeable to hydrophobic antibiotics. Ascertain ceragenins have been previously described to be able to enhance the efficacy of such antibiotics, this possibility was investigated for compound 1 and a FICI of 0.6 was obtained.

E. coli 2252 = assay: Checkerboard synergy with COL; type: cell-based, Escherichia coli
Protocol: as §1

E. coli ATCC 25922 = assay: Bacterial biofilm formation inhibition (crystal violet); type: cell-based, Escherichia coli
Protocol: (§2) In an embodiment, the antibiofilm activity of compound 1 was performed as follows. Given its bactericidal effect, the impact of compound 1 on the biofilm formation of reference strains was studied.
(§3) The effect of compound 1 on bacterial biofilm formation was evaluated through quantification of total biomass, using the crystal violet method, as previously described ([FIG. 6]). […] A control with an appropriate concentration of DMSO, as well as a negative control (TSB alone) was included. Sterile 96-well flat-bottomed untreated polystyrene microtiter plates were used. After a 24 h incubation at 37 degrees C., the biofilms were heat-fixed for 1 h at 60 degrees C. and stained with 0.5% (v/v) crystal violet (Quimica Clinica Aplicada, Amposta, Spain) for 5 min. The stain was resolubilized with 33% (v/v) acetic acid (Acetic acid 100%, AppliChem, Darmstadt, Germany) and the biofilm biomass was quantified by measuring the absorbance of each sample at 570 nm in a microplate reader (Thermo Scientific Multiskan® EX, Thermo Fisher Scientific, Waltham, MA, USA). The background absorbance (TSB or TSB+1% glucose without inoculum) was subtracted from the absorbance of each sample and the data are presented as a percentage of control. Three independent assays were performed for reference strains, with triplicates for each experimental condition.

S. aureus ATCC 29213 = assay: as above; type: cell-based, Staphylococcus aureus; conditions: 2×MIC and MIC, 24 h
Protocol: as §2, §3

C. albicans ATCC 10231 [1] = assay: Time-kill kinetics; type: cell-based, Candida albicans
Protocol: As mentioned for antibacterial activity, time-kill plots allow the evaluation of killing of a microbial isolate over time and establishing how much exposure time is needed in order to achieve a fungicidal effect, which is usually defined by ≥99.9% killing of the initial inoculum and is determined by a 3-log10-unit decrease in CFU/mL. […] Time-kill kinetics of compound 1 were evaluated for C. albicans ATCC 10231.
Determination of killing of C. albicans ATCC 10231 over time was carried out using the time-kill method, as previously described. This assay was performed for concentrations of compound 1 ranging between 64 and 8 μg/mL. Colonies from 24 h cultures in SDA were suspended in sterile saline and adjusted to 0.5 McFarland. An aliquot of this suspension was then added to each tube of RPMI alone (control) or RPMI plus an appropriate amount of compound 1, to give an inoculum of approximately 10^5 CFU/mL in a final volume of 10 mL. Tubes were incubated at 36° C. in a water bath with shaking and vortexed prior to removing each sample for the determination of colony counts. At predetermined time points (30 min, 1, 1.5, 2, 3, 4, 6, 8, and 12 h), 100 μL aliquots were aseptically removed from each tube, serially diluted in sterile saline, and spread on SDA plates. Colony counts were determined following incubation at 36° C. for 24 to 48 h and log10 CFU/mL was plotted against time. At least three independent experiments were performed.

C. albicans ATCC 10231 [2] = assay: Germ tube formation; type: cell-based, Candida albicans; conditions: 3 h
Protocol: The effect of compound 1 in germ tube formation of C. albicans ATCC 10231 was determined as previously described. Briefly, cell suspensions were prepared in NYP medium (N-acetylglucosamine [Sigma, St. Louis, MO, USA; 10-3 mol/L], yeast nitrogen base [Difco, New Jersey, USA; 3.35 g/L], proline [Fluka, Buchs, St. Gallen, Switzerland; 10^−3 mol/L], and NaCl [4.5 g/L], pH 6.7±0.1) and adjusted to a density of (1.0±0.2)×10^6 CFU/mL, as determined by cell counts using a haemocytometer. An appropriate volume of compound stock solution at 10 mg/mL was added to obtain final concentrations ranging between 64 and 8 μg/mL. Filamentation controls were included in each assay with and without 0.64% DMSO. Following a 3 h incubation at 37° C., 100 cells from each sample were counted, using a haemocytometer, and the percentage of germ tubes was determined. Three independent assays were performed.

Structure (SMILES): C[C@H](CCC(=O)NCCN)[C@H]1CC[C@H]2[C@@H]3CC[C@@H]4C[C@H](O)CC[C@]4(C)[C@H]3C[C@H](O)[C@]12C [Compound 1, (R)—N-(2-aminoethyl)-4-((3R,5R,8R,9S,10S,12S,13R,14S,17R)-3,12-dihydroxy-10,13-dimethylhexadecahydro-1H-cyclopenta[a]phenanthren-17-yl) pentanamida]
- combined effect with VAN (in words) (E. faecalis B3/101): No synergistic interactions
- combined effect with COL (in words) (E. coli 2252; checkerboard, E. coli 2252): No synergistic interactions
- fractional inhibitory concentration index (FICI) (E. coli 2252; with COL, E. coli 2252 (mcr-1)): 0.6
- biofilm formation (in words) (E. coli ATCC 25922; 2×MIC and MIC, 24 h): significantly inhibited
- minimal biofilm inhibitory concentration (MBIC) (E. coli ATCC 25922; 80% reduction of biofilm formation, E. coli ATCC 25922): < 8 µg/mL
- biofilm formation (in words) (S. aureus ATCC 29213): significantly inhibited
- exposure time to fungicidal effect (≥99.9% killing) (C. albicans ATCC 10231 [1]; 64 μg/mL (MIC)): approximately 4 h
- additional time to produce an additional 1-log10-unit decrease in CFU/mL (C. albicans ATCC 10231 [1]; 64 μg/mL, after the first 2 h): 10 h
- decrease in CFU/mL each hour (C. albicans ATCC 10231 [1]; 64 μg/mL, until 2 h of exposure): 1 log10-unit
- type of killing (in words) (C. albicans ATCC 10231 [1]; 64-8 μg/mL): concentration-dependent killing
- dimorphic transition / germ tube formation (in words) (C. albicans ATCC 10231 [2]; 64 μg/mL (MIC)): complete inhibition of dimorphic transition
- dimorphic transition / germ tube formation (in words) (C. albicans ATCC 10231 [2]; 32 and 16 μg/mL (½×MIC and ¼×MIC)): significant inhibition
